Source: patent US20230312556A1, “ARYLAMIDE COMPOUND, PHARMACEUTICAL COMPOSITION COMPRISING SAME, AND PREPARATION METHOD THEREFOR AND USE THEREOF” (SICHUAN KELUN-BIOTECH BIOPHARMACEUTICAL CO., LTD., priority 2020, published 2023)

What was measured:
[1] = biological target: wild-type BRAF enzyme (Homo sapiens (Human), UniProt P15056); assay: RAF inhibition assay (TB-PMAP2K1 kit), wild-type BRAF; assay type: biochemical; settings: FLUORESCEIN-MAP2K1 substrate, 60 min reaction
Protocol: Assay protocol: the inhibitory effects of the compounds of the present invention on the wild-type BRAF enzyme, mutant CRAF enzyme (RAF1 Y340D and Y341D) and mutant BRAF enzyme (BRAF-V600E) activity were determined according to the instructions of the TB-PMAP2K1 (PSER217/221) kit (ThermoFisher). Different RAF enzymes and substrates (FLUORESCEIN-MAP2K1) were pre-incubated with test compounds at various concentrations at room temperature for 15 min, and then the adenosine triphosphate (ATP) was added to initiate the reaction. After incubation at room temperature for 60 min, EDTA and Tb-labeled anti-pMAP2K1 [pS217/221] antibody solutions were added, and incubation was performed at room temperature for 60 min before the detection of the fluorescence values of the compounds in each group. With the vehicle group (DMSO) as the negative control and the buffer group (without RAF enzyme) as the blank control, the relative inhibitory activity percentage (i.e., the inhibition rate) of a compound at different concentrations was calculated according to the following formula:
Relative inhibitory activity percentage=1−(Compound group at various concentrations−blank control)/(negative control−blank control)*100%
The relative inhibitory activity percentages of the compounds at different concentrations were plotted against the compound concentrations, the curve was fitted according to a four-parameter model, and the IC50 value was calculated according to the following formula:
y=min+(max−min)/(1+(x/IC50)^(−Hillslope))
wherein y is the relative inhibitory activity percentage, max and min are respectively the maximum and minimum values of the fitted curve, x is the logarithm concentration of the compound, and Hillslope is the slope of the curve.

[2] = test system: human hepatocellular carcinoma cell HepG2 (NRAS-Q61K mutation); assay: Cancer cell proliferation inhibition assay, HepG2; assay type: cell-based; settings: 72 h incubation, Cell Titer Glo
From the text: (§1) The inhibitory effects of the compounds of the present invention on cancer cell proliferation were further evaluated by testing the effects of the compounds of the present invention on the growth of cancer cells.
(§2) In this example, human melanoma cell A375 (BRAF-V600E mutation, purchased from the Cell Bank of the Chinese Academy of Sciences) and human hepatocellular carcinoma cell HepG2 (NRAS-Q61K mutation, purchased from ATCC, USA) were employed.
(§3) In this example, the test compounds at various concentrations (100000 nM, 30000 nM, 10000 nM, 3000 nM, 1000 nM, 300 nM, 100 nM, 30 nM, 10 nM) were added to the above cells, and the incubation was performed for 72 h. The inhibitory activity of the compounds was tested by measuring ATP in living cells using the Cell Titer Glo Kit (Promega).
(§4) The IC50 values of the compounds of the present invention for each tested cell were determined, and the test results are as follows: […]

[3] = test system: human melanoma cell A375 (BRAF-V600E mutation); assay: Cancer cell proliferation inhibition assay, A375; assay type: cell-based; settings: A-375, 72 h incubation, Cell Titer Glo
From the text: as §1, §2, §3, §4

Sequence of wild-type BRAF enzyme (P15056 whole entry): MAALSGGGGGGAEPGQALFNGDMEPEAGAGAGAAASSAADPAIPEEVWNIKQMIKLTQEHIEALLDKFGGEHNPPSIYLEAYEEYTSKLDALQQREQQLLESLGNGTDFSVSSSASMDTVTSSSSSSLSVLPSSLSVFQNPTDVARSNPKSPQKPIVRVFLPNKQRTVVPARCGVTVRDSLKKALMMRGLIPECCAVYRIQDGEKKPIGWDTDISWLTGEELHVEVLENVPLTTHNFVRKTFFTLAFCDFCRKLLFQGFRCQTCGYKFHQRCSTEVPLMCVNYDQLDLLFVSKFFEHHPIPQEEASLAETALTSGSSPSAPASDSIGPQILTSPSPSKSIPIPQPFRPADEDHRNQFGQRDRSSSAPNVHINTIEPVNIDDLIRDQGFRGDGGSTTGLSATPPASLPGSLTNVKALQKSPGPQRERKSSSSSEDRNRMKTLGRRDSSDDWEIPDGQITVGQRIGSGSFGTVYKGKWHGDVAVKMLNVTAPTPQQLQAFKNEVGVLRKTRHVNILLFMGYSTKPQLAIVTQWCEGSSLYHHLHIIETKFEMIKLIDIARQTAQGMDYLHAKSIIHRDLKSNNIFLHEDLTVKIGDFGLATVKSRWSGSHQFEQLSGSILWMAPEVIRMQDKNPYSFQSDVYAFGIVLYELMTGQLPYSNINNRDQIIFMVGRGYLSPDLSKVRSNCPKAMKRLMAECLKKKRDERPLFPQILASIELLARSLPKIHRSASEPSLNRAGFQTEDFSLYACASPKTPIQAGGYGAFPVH

Structure (SMILES) | IC50 [1] [nM] | IC50 [2] [nM] | IC50 [3] [nM]
Cc1ccc2c(Nc3cccc(C(F)(F)F)c3)nccc2c1NC(=O)c1cnc2c(N)ncnn12 [Compound 43, 4-amino-N-(6-methyl-1-((3-(trifluoromethyl)phenyl)amino)isoquinolin-5-yl)imidazo[2,1-f][1,2,4]triazine-7-carboxamide] | 20.7 ± 5.71 | 32.9 ± 3.3 | 61.7 ± 3
COc1ccc(Nc2nccc3c(NC(=O)c4cccc5c(N)ncnc45)c(C)ccc23)c(F)c1 [Compound 60, 4-amino-N-(1-((2-fluoro-4-methoxyphenyl)amino)-6-methylisoquinolin-5-yl)quinazoline-8-carboxamide] | 8.48 ± 0.9 | 34.1 ± 4.32 | 28 ± 3.12
Cc1ccc2c(Nc3ccc(Cl)cc3F)nccc2c1NC(=O)c1cccc2c(N)ncnc12 [Compound 41, 4-amino-N-(1-((4-chloro-2-fluorophenyl)amino)-6-methylisoquinolin-5-yl)quinazoline-8-carboxamide] | 31.8 ± 5.36 | 55.6 ± 4.8 | 22.2 ± 1.86
Cc1ccc2c(C(O)c3ccc(Cl)cc3F)nccc2c1NC(=O)c1csc2c(N)ncnc12 (stereo not drawn) [Compound 28, 4-amino-N-(1-((4-chloro-2-fluorophenyl)(hydroxy)methyl)-6-methylisoquinolin-5-yl)thieno[3,2-d]pyrimidine-7-carboxamide] | 9.43 ± 0.76 |  | 98.8 ± 10.2
Cc1ccc2c(Cc3cccc(C(F)(F)F)c3)nccc2c1NC(=O)c1csc2c(N)ncnc12 [Compound 19, 4-amino-N-(6-methyl-1-(3-(trifluoromethyl)benzyl)isoquinolin-5-yl)thieno[3,2-d]pyrimidine-7-carboxamide] | 21.6 ± 4.85 | 136 ± 21.3 | 163 ± 21.3
Cc1ccc2c(Nc3cc(S(C)(=O)=O)ccc3F)nccc2c1NC(=O)c1cccc2c(N)ncnc12 [Compound 89, 4-amino-N-(1-((2-fluoro-5-(methylsulfonyl)phenyl)amino)-6-methylisoquinolin-5-yl)quinazoline-8-carboxamide] | 20.4 ± 1.3 | 106 ± 25.2 | 111 ± 5.2
Cc1ccc2c(Nc3cccc(Cl)c3)nccc2c1NC(=O)c1cccc2c(N)ncnc12 [Compound 38, 4-amino-N-(1-((3-chlorophenyl)amino)-6-methylisoquinolin-5-yl)quinazoline-8-carboxamide] | 23.2 ± 2.67 | 38.1 ± 3.6 | 96.7 ± 14.3
Cc1ccc2c(Nc3ccc(F)c(Cl)c3)nccc2c1NC(=O)c1cnc2c(N)ncnn12 [Compound 58, 4-amino-N-(1-((3-chloro-4-fluorophenyl)amino)-6-methylisoquinolin-5-yl)imidazo[2,1-f][1,2,4]triazine-7-carboxamide] | 10.8 ± 1.09 | 37.6 ± 3.34 | 
Cc1ccc2c(C(=O)c3cccc(C(F)(F)F)c3)nccc2c1NC(=O)c1csc2c(N)ncnc12 [Compound 22, 4-amino-N-(6-methyl-1-(3-(trifluoromethyl)benzoyl)isoquinolin-5-yl)thieno[3,2-d]pyrimidine-7-carboxamide] | 50.2 ± 8.47 |  | 
Cc1ccc2c(Nc3ccc(F)cc3F)nccc2c1NC(=O)c1cc(F)cc2c(N)ncnc12 [Compound 85, 4-amino-N-(1-((2,4-difluorophenyl)amino)-6-methylisoquinolin-5-yl)-6-fluoroquinazoline-8-carboxamide] | 12.9 ± 0.9 | 40.1 ± 6.97 | 148 ± 3.8
Cc1ccc2c(Nc3ccccc3F)nccc2c1NC(=O)c1cccc2c(N)ncnc12 [Compound 39, 4-amino-N-(1-((2-fluorophenyl)amino)-6-methylisoquinolin-5-yl)quinazoline-8-carboxamide] | 8.44 ± 2.46 | 27.1 ± 2.5 | 
Cc1ccc2c(Nc3c(F)cc(F)cc3F)nccc2c1NC(=O)c1cccc2c(N)ncnc12 [Compound 94, 4-amino-N-(6-methyl-1-((2,4,6-trifluorophenyl)amino)isoquinolin-5-yl)quinazoline-8-carboxamide] | 10.3 ± 1 | 47.4 ± 6.5 | 58.8 ± 5.6
Nc1ncnc2c(C(=O)Nc3c(F)ccc4c(Nc5cccc(Cl)c5F)nccc34)cccc12 [Compound 92, 4-amino-N-(1-((3-chloro-2-fluorophenyl)amino)-6-fluoroisoquinolin-5-yl)quinazoline-8-carboxamide] | 21.8 ± 3.89 | 49.8 ± 4.3 | 128 ± 8
Cc1ccc2c(C(O)c3cccc(C(F)(F)F)c3)nccc2c1NC(=O)c1csc2c(N)ncnc12 (stereo not drawn) [Compound 23, 4-amino-N-(1-(hydroxy(3-(trifluoromethyl)phenyl)methyl)-6-methylisoquinolin-5-yl)thieno[3,2-d]pyrimidine-7-carboxamide] | 51.4 ± 1.64 |  | 64.7 ± 4.22
Cc1ccc2c(Nc3cccc(Cl)c3F)nccc2c1NC(=O)c1cc(F)cc2c(N)ncnc12 [Compound 46, 4-amino-N-(1-((3-chloro-2-fluorophenyl)amino)-6-methylisoquinolin-5-yl)-6-fluoroquinazoline-8-carboxamide] | 79.3 ± 19.5 | 74.4 ± 7.91 | 89.3 ± 5.2
Cc1ccc2c(Nc3cccc(Cl)c3F)nccc2c1NC(=O)c1cc(N2CCN(C)CC2)cc2c(N)ncnc12 [Compound 54, 4-amino-N-(1-((3-chloro-2-fluorophenyl)amino)-6-methylisoquinolin-5-yl)-6-(4-methylpiperazin-1-yl)quinazoline-8-carboxamide] |  | 95.6 ± 8.18 | 108 ± 19.9
CC(=O)c1ccc(Nc2nccc3c(NC(=O)c4cccc5c(N)ncnc45)c(C)ccc23)cc1 [Compound 63, N-(1-((4-acetylphenyl)amino)-6-methylisoquinolin-5-yl)-4-aminoquinazoline-8-carboxamide] |  | 28.6 ± 2.7 | 46.3 ± 1.79
Cc1ccc2c(Nc3cc(Cl)ccc3F)nccc2c1NC(=O)c1cc(F)cc2c(N)ncnc12 [Compound 84, 4-amino-N-(1-((5-chloro-2-fluorophenyl)amino)-6-methylisoquinolin-5-yl)-6-fluoroquinazoline-8-carboxamide] |  | 67.2 ± 9.93 | 165 ± 6.5
Cc1ccc2c(Nc3cc(C#N)ccc3F)nccc2c1NC(=O)c1cccc2c(N)ncnc12 [Compound 80, 4-amino-N-(1-((5-cyano-2-fluorophenyl)amino)-6-methylisoquinolin-5-yl)quinazoline-8-carboxamide] |  | 75.4 ± 6 | 167 ± 8.47
Cc1ccc2c(Nc3ccnc(C(F)(F)F)c3)nccc2c1NC(=O)c1cccc2c(N)ncnc12 [Compound 71, 4-amino-N-(6-methyl-1-((2-(trifluoromethyl)pyridin-4-yl)amino)isoquinolin-5-yl)quinazoline-8-carboxamide] |  | 53 ± 9.7 | 170 ± 13.8
Cc1ccc2c(C(C)Oc3ccccc3)nccc2c1NC(=O)c1csc2c(N)ncnc12 (stereo not drawn) [Compound 35, 4-amino-N-(6-methyl-1-(1-phenoxyethyl)isoquinolin-5-yl)thieno[3,2-d]pyrimidine-7-carboxamide] | 125 ± 3.5 |  | 
Cc1ccc2c(Nc3ccc(C#N)cc3F)nccc2c1NC(=O)c1cccc2c(N)ncnc12 [Compound 78, 4-amino-N-(1-((4-cyano-2-fluorophenyl)amino)-6-methylisoquinolin-5-yl)quinazoline-8-carboxamide] |  | 56.4 ± 5.8 | 63.5 ± 2.6
COc1ccc(Nc2nccc3c(NC(=O)c4cccc5c(N)ncnc45)c(C)ccc23)cc1OC [Compound 68, 4-amino-N-(1-((3,4-dimethoxyphenyl)amino)-6-methylisoquinolin-5-yl)quinazoline-8-carboxamide] |  | 109 ± 12.2 | 104 ± 20.6
Cc1ccc2c(Nc3cccc(Cl)c3F)nccc2c1NC(=O)c1cnc2c(N)ncnn12 [Compound 30, 4-amino-N-(1-((3-chloro-2-fluorophenyl)amino)-6-methylisoquinolin-5-yl)imidazo[2,1-f][1,2,4]triazine-7-carboxamide] |  | 13.3 ± 0.9 | 89.3 ± 11.3
Cc1ccc2c(Nc3cccc(Cl)c3F)nccc2c1NC(=O)c1nccc2c(N)ncnc12 [Compound 66, 4-amino-N-(1-((3-chloro-2-fluorophenyl)amino)-6-methylisoquinolin-5-yl)pyrido[3,4-d]pyrimidine-8-carboxamide] |  | 46.1 ± 9.6 | 166 ± 6.1
Cc1ccc2c(Nc3ccc(Cl)c(F)c3F)nccc2c1NC(=O)c1cnc2c(N)ncnn12 [Compound 70, 4-amino-N-(1-((4-chloro-2,3-difluorophenyl)amino)-6-methylisoquinolin-5-yl)imidazo[2,1-f][1,2,4]triazine-7-carboxamide] |  | 59.9 ± 6.8 | 190 ± 23.8
